Experimental data taken from patent publication US20080260838A1 (priority 2003, published 2008).

Tests used:
DPP-IV = molecular target: T1, DPP-IV (Rattus norvegicus, UniProt P14740); assay: DPP-IV activity, cleavage of luminescent Gly-Pro substrate in bronchial lung lavage fluid; assay type: biochemical; conditions: aprotinin 1, 2, 3, 4 and 5 TIU/ml
T1 construct: from tissue; host or cells: rat bronchial lung lavage fluid
Experimental: Aprotinin, a naturally occurring serine protease inhibitor, which is known in the art to inhibit protein degradation was added to the samples post collection at 1, 2, 3, 4 and 5 TIU/ml. DPP-IV activity was then measured by detecting the cleavage of a luminescent substrate containing the DPP-IV recognized Gly-Pro sequence. Bronchial lung lavage fluid was incubated with proluminescent substrate for 30 min and cleavage product was detected by luminescence.

[1] = tested on: Rat pancreatic epithelial (ARIP) cells; assay: Apoptosis by FACS analysis using Annexin V staining; assay type: cell-based; conditions: 15 nM GLP-1, 1 μM staurosporine 4 hrs
Source text: Annexin V staining is a useful tool in detecting apoptotic cells and is well known to those of skill in the art. Binding of Annexin V to the cell membrane, allows for the analysis of changes in […] (PS) asymmetry before morphological changes associated with apoptosis occurred and before membrane integrity is lost.

β-cell mass = assay: Effect on β-cell mass, cells treated at day 1, 3 and 5; assay type: cell-based; conditions: cells treated with GLP-1/FDKP versus untreated cells
[2] = tested on: Rat pancreatic epithelial (ARIP) cells; assay: Staurosporine-induced cell death in ARIP cells (Cell Titer-Glo); assay type: cell-based; conditions: GLP-1 up to 10 nM, 5 μM staurosporine […]
Experimental: Cell viability was evaluated using Cell Titer-Glo™ (Promega, Madison, Wis.).
The formulations were analyzed for their ability to inhibit staurosporine-induced cell death in ARIP cells.
All of the results shown are averages of triplicate runs.

T1 sequence (P14740 whole entry): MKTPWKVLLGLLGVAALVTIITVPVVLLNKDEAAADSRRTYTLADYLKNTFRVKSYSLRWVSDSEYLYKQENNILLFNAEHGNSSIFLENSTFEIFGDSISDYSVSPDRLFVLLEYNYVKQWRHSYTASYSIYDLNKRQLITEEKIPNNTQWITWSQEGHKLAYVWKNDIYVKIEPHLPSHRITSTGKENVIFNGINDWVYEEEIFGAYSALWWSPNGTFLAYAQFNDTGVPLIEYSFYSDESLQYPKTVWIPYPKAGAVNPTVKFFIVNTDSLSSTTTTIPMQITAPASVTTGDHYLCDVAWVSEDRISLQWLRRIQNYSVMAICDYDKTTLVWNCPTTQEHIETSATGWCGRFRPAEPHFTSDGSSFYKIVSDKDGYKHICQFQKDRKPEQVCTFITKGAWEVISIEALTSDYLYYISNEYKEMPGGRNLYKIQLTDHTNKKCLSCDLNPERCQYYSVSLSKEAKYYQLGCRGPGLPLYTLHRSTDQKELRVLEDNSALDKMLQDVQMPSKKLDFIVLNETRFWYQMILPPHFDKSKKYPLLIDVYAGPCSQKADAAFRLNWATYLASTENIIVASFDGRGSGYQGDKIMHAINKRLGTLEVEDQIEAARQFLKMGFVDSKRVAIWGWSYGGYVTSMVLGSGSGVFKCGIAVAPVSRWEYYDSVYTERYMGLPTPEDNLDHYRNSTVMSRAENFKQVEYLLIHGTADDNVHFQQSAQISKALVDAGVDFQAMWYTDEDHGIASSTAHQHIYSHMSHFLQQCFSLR

| Substance | inhibition of DPP-IV activity (DPP-IV) | inhibition of staurosporine induced apoptosis [1] | increase in β-cell mass (β-cell mass) | percent of cell death [2] |
| --- | --- | --- | --- | --- |
| aprotinin | increase in inhibition of DPP-IV activity |  |  |  |
| GLP-1 |  | about 40% | up to 2 fold | decrease in the percent of cell death |
